PubChem BioAssay (NCI)
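Protocol summary: plate cells (96-well), add compound at 5 concentrations, incubate 48 h, interpolate endpoints linearly. GI50 marks 50% less growth. TGI: concentration producing complete growth inhibition.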

Tests used:
Assay in all cases: DTP human tumour cell line panel, 48 h
SK-OV-3 ovarian = system: SK-OV-3 ovarian
RXF 393 renal = system: RXF 393 renal
ACHN renal = system: ACHN renal
SNB-75 CNS = system: SNB-75 CNS
SN12C renal = system: SN12C renal
OVCAR-5 ovarian = system: OVCAR-5 ovarian
A498 renal = system: A498 renal
RPMI-8226 leukemia = system: RPMI-8226 leukemia
PC-3 prostate = system: PC-3 prostate
SW-620 colon = system: SW-620 colon
T-47D breast = system: T-47D breast
SNB-19 CNS = system: SNB-19 CNS
HCT-15 colon = system: HCT-15 colon
NCI-H226 lung = system: NCI-H226 lung
OVCAR-8 ovarian = system: OVCAR-8 ovarian
EKVX NSCLC = system: EKVX NSCLC
UACC-62 melanoma = system: UACC-62 melanoma
HL-60(TB) leukemia = system: HL-60(TB) leukemia
HT29 colon = system: HT29 colon
NCI/ADR-RES ovarian = system: NCI/ADR-RES ovarian
SF-295 CNS = system: SF-295 CNS
UACC-257 melanoma = system: UACC-257 melanoma
786-0 renal = system: 786-0 renal
HS 578T breast = system: HS 578T breast
KM12 colon = system: KM12 colon
MALME-3M melanoma = system: MALME-3M melanoma
MDA-MB-231 breast = system: MDA-MB-231 breast
MOLT-4 leukemia = system: MOLT-4 leukemia
TK-10 renal = system: TK-10 renal
NCI-H522 lung = system: NCI-H522 lung
LOX IMVI melanoma = system: LOX IMVI melanoma
CAKI-1 renal = system: CAKI-1 renal
HOP-92 NSCLC = system: HOP-92 NSCLC
SF-268 CNS = system: SF-268 CNS
M14 melanoma = system: M14 melanoma
HOP-62 NSCLC = system: HOP-62 NSCLC
NCI-H23 lung = system: NCI-H23 lung
SF-539 CNS = system: SF-539 CNS
UO-31 renal = system: UO-31 renal
SK-MEL-2 melanoma = system: SK-MEL-2 melanoma
IGROV1 ovarian = system: IGROV1 ovarian
HCC-2998 colon = system: HCC-2998 colon
DU-145 prostate = system: DU-145 prostate
U251 CNS = system: U251 CNS
MCF7 breast = system: MCF7 breast
K-562 leukemia = system: K-562 leukemia
SK-MEL-5 melanoma = system: SK-MEL-5 melanoma
COLO 205 colon = system: COLO 205 colon
MDA-MB-435 = system: MDA-MB-435
HCT-116 colon = system: HCT-116 colon
A549 NSCLC = system: A549 NSCLC
SR leukemia = system: SR leukemia
SK-MEL-28 melanoma = system: SK-MEL-28 melanoma
NCI-H460 lung = system: NCI-H460 lung
CCRF-CEM leukemia = system: CCRF-CEM leukemia
BT-549 breast = system: BT-549 breast
OVCAR-4 ovarian = system: OVCAR-4 ovarian

## NC(=S)n1c(=O)n(-c2cccc(C(F)(F)F)c2)c(=O)c2cc(-c3ccc(F)cc3F)ccc21
SK-OV-3 ovarian
  GI50: 1210 nM
  TGI: 3600 nM
RXF 393 renal
  GI50: 1220 nM
  TGI: 3090 nM
ACHN renal
  GI50: 2270 nM
  TGI: 10500 nM
SNB-75 CNS
  GI50: 1500 nM
  TGI: 5170 nM
SN12C renal
  GI50: 1260 nM
  TGI: 6300 nM
OVCAR-5 ovarian
  GI50: 3540 nM
  TGI: 17500 nM
A498 renal
  GI50: 341 nM
  TGI: 1220 nM
RPMI-8226 leukemia
  GI50: 575 nM
  TGI: 3110 nM
PC-3 prostate
  GI50: 1050 nM
  TGI: 4110 nM
SW-620 colon
  GI50: 1600 nM
  TGI: 4200 nM
T-47D breast
  GI50: 1540 nM
  TGI: 6090 nM
SNB-19 CNS
  GI50: 1290 nM
  TGI: 22900 nM
HCT-15 colon
  GI50: 769 nM
  TGI: 2690 nM
NCI-H226 lung
  GI50: 1420 nM
  TGI: 3890 nM
OVCAR-8 ovarian
  GI50: 1290 nM
  TGI: 6480 nM
EKVX NSCLC
  GI50: 2390 nM
  TGI: 7950 nM
UACC-62 melanoma
  GI50: 379 nM
  TGI: 1610 nM
HL-60(TB) leukemia
  GI50: 1600 nM
  TGI: 7260 nM
HT29 colon
  GI50: 3340 nM
  TGI: 11900 nM
NCI/ADR-RES ovarian
  GI50: 1970 nM
  TGI: 9410 nM
SF-295 CNS
  GI50: 1750 nM
  TGI: 3620 nM
UACC-257 melanoma
  GI50: 1070 nM
  TGI: 4000 nM
786-0 renal
  GI50: 2000 nM
  TGI: 4390 nM
HS 578T breast
  GI50: 1110 nM
  TGI: 4450 nM
KM12 colon
  GI50: 2260 nM
  TGI: 6210 nM
MALME-3M melanoma
  GI50: 1510 nM
  TGI: 4950 nM
MDA-MB-231 breast
  GI50: 1820 nM
  TGI: 5950 nM
MOLT-4 leukemia
  GI50: 1660 nM
  TGI: 4840 nM
TK-10 renal
  GI50: 4050 nM
  TGI: 8470 nM
NCI-H522 lung
  GI50: 428 nM
  TGI: 2870 nM
LOX IMVI melanoma
  GI50: 1540 nM
  TGI: 3170 nM
CAKI-1 renal
  GI50: 1610 nM
  TGI: 5860 nM
HOP-92 NSCLC
  GI50: 191 nM
  TGI: 741 nM
SF-268 CNS
  GI50: 2000 nM
  TGI: 11300 nM
M14 melanoma
  GI50: 1600 nM
  TGI: 4230 nM
HOP-62 NSCLC
  GI50: 1830 nM
  TGI: 4440 nM
NCI-H23 lung
  GI50: 1180 nM
  TGI: 5100 nM
SF-539 CNS
  GI50: 1920 nM
  TGI: 8790 nM
UO-31 renal
  GI50: 2300 nM
  TGI: 8580 nM
SK-MEL-2 melanoma
  GI50: 590 nM
  TGI: 2350 nM
IGROV1 ovarian
  GI50: 1990 nM
  TGI: 13000 nM
HCC-2998 colon
  GI50: 2960 nM
  TGI: 9270 nM
DU-145 prostate
  GI50: 2740 nM
  TGI: 13700 nM
U251 CNS
  GI50: 1740 nM
  TGI: 9310 nM
MCF7 breast
  GI50: 1700 nM
  TGI: 8180 nM
K-562 leukemia
  GI50: 725 nM
  TGI: 14100 nM
SK-MEL-5 melanoma
  GI50: 333 nM
  TGI: 1140 nM
COLO 205 colon
  GI50: 1760 nM
  TGI: 3360 nM
MDA-MB-435
  GI50: 1560 nM
  TGI: 5460 nM
HCT-116 colon
  GI50: 953 nM
  TGI: 2300 nM
A549 NSCLC
  GI50: 2730 nM
  TGI: 11300 nM
SR leukemia
  GI50: 984 nM
  TGI: 5150 nM
SK-MEL-28 melanoma
  GI50: 1430 nM
  TGI: 6240 nM
NCI-H460 lung
  GI50: 763 nM
  TGI: 5410 nM
CCRF-CEM leukemia
  GI50: 2270 nM
  TGI: 11500 nM
BT-549 breast
  GI50: 1180 nM
  TGI: 2620 nM
OVCAR-4 ovarian
  GI50: 2390 nM
  TGI: 22500 nM
